Experimental data published in publication PMC5706701, “Development of a homogenous high-throughput assay for inositol hexakisphosphate kinase 1 activity” (PLoS ONE, 2017).
Structures can show the parent of a compound that is named as a salt. Where two headings read alike, the source gives them in different places.

Target: T1, Human IP6K1 (Homo sapiens, UniProt Q92551)
T1 construct: GST (N, cleaved yes); made in house; host or cells: C43 E. coli, pGEX-6P-2
Experiment: IP6K1 high-throughput screen of the Sigma LOPAC (ADP-Glo Max, single point);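 note: final compound concentration 10µM in 5% DMSO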
Type: biochemical

[1] = LOPAC single-point screen, ADP-Glo Max raw signal per well
[2] = LOPAC single-point screen, Z-score from raw signal with plate average and StDev
[3] = Sigma LOPAC single-point screen, ADP-Glo Max raw signal per well
[4] = Sigma LOPAC single-point screen, Z-score from plate average and StDev
[5] = LOPAC single-point screen, Z-score against plate average and StDev
[6] = LOPAC single-point screen, ADP-Glo Max luminescence raw signal per well
[7] = LOPAC single-point screen, Z-score relative to plate average and StDev

T1 sequence (Q92551 whole entry): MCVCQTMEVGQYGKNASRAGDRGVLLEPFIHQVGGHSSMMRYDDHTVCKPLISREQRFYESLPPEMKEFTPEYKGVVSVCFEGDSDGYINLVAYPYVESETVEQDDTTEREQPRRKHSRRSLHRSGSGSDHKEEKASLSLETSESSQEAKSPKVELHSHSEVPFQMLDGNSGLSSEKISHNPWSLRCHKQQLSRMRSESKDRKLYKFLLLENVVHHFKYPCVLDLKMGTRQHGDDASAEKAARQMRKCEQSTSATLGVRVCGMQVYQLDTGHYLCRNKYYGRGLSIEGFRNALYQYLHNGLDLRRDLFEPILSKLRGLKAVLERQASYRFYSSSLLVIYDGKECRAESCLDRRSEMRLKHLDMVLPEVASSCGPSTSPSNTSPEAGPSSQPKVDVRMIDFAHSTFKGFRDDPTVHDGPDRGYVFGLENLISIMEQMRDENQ

Question: How did the “Raw Signal” value [1] turn out when `OC[C@H]1O[C@@H](n2cnc3c(NC4CCCC4)ncnc32)[C@H](O)[C@@H]1O` [N6-Cyclopentyladenosine] was run?
Answer: 55487

Question: And the Z-score [2]?
Answer: -0.4273

Question: With `COc1ccc2c(c1)c(CC(=O)O)c(C)n2Cc1ccc(F)cc1` as the molecule, how does the “Raw Signal” value [1] read?
Answer: 54531

Question: And the Z-score [2]?
Answer: -0.1292

Question: Which “Raw Signal” value [3] does the source give for `CC(C)Cn1c(=O)n(C)c(=O)c2[nH]cnc21` [3-Isobutyl-1-methylxanthine] here?
Answer: 62159

Question: And the Z-score [4]?
Answer: 1.305

Question: For `CC(=N)NCCC[C@H](N)C(=O)O.Cl`, which “Raw Signal” value [1] is on record?
Answer: 54044

Question: What about the Z-score [5] of the same molecule?
Answer: -0.05873

Question: `Cl.c1ccc2c(N3CCNCC3)cccc2c1` [1-(1-Naphthyl)piperazine hydrochloride] was tested. Which “Raw Signal” value [1] did it give?
Answer: 55645

Question: What about the Z-score [5] of the same molecule?
Answer: -0.07359

Question: Which “Raw Signal” value [1] does the source give for `Cc1nc2ccccn2c(=O)c1CCN1CCC(C(=O)c2ccc(F)cc2)CC1` [Pirenperone] here?
Answer: 53743

Question: What about the Z-score [2] of the same molecule?
Answer: -0.4431

Question: How did the “Raw Signal” value [6] turn out when `N=C(N)NC(=N)Nc1ccccc1` [1-Phenylbiguanide] was run?
Answer: 52325

Question: And the Z-score [7]?
Answer: -0.7186

Question: How did the “Raw Signal” value [1] turn out when `CC[N+](CC)(CC)CCOc1cccc(OCC[N+](CC)(CC)CC)c1OCC[N+](CC)(CC)CC` [Gallamine triethiodide] was run?
Answer: 56632

Question: What about the Z-score [5] of the same molecule?
Answer: 0.2975

Question: How did the “Raw Signal” value [1] turn out when `NC(CCP(=O)(O)O)C(=O)O` (racemic) [(±)-2-Amino-4-phosphonobutyric acid] was run?
Answer: 55594

Question: And the Z-score [2]?
Answer: -0.4085

Question: For `CC(C)COC(=O)OCN1C(=O)CN(CCN2CC(=O)N(COC(=O)OCC(C)C)C(=O)C2)CC1=O` [Sobuzoxane], which “Raw Signal” value [1] is on record?
Answer: 54088

Question: What about the Z-score [2] of the same molecule?
Answer: -0.3761

Question: What does the source list for `Nc1nc(Cl)nc2c1ncn2[C@@H]1O[C@H](COP(=O)(O)OP(=O)(O)OP(=O)(O)O)C(O)C1O` (stereo in doubt)?
Answer: Raw Signal [6]: 49196; Z-score [7]: -1.213

Question: Which “Raw Signal” value [1] does the source give for `CCN1CCC[C@H]1CNC(=O)c1cc(S(N)(=O)=O)ccc1OC` [(-)-Sulpiride] here?
Answer: 56775

Question: What about the Z-score [5] of the same molecule?
Answer: 0.1459

Question: With `CC12NC(Cc3ccccc31)c1ccccc12.O=C(O)/C=C\C(=O)O` (single isomer, unassigned; (+)) [(+)-MK-801 hydrogen maleate] as the molecule, how does the “Raw Signal” value [3] read?
Answer: 58157

Question: And the Z-score [4]?
Answer: 0.6324

Question: What does the source list for `Cl.NCC(O)c1ccc(O)cc1` (racemic) [(±)-Octopamine hydrochloride]?
Answer: Raw Signal [1]: 52629; Z-score [2]: -0.2965

Question: With `C=CC1=C(C)c2cc3[nH]c(cc4nc(cc5[nH]c(cc1n2)c(C)c5CCC(=O)O)C(CCC(=O)O)=C4C)c(C)c3C=C` [Protoporphyrin IX disodium] as the molecule, how does the “Raw Signal” value [1] read?
Answer: 54546

Question: What about the Z-score [2] of the same molecule?
Answer: -0.2871

Question: With `Cl.NC(N)=NCCNS(=O)(=O)c1cccc2cnccc12` [HA-1004 hydrochloride] as the molecule, how does the “Raw Signal” value [6] read?
Answer: 50838

Question: And the Z-score [7]?
Answer: -0.8792

Question: `O=C1Nc2ccccc2/C1=C1/Nc2ccccc2/C1=N\O` [Indirubin-3 -oxime] was tested. Which “Raw Signal” value [3] did it give?
Answer: 58050

Question: What about the Z-score [4] of the same molecule?
Answer: 0.5855

Question: Which “Raw Signal” value [6] does the source give for `Cl.NCC(O)C1CCCCCCC1` (stereo not shown) here?
Answer: 52354

Question: What about the Z-score [7] of the same molecule?
Answer: -0.5713

Question: For `CCC1(c2ccccc2)C(=O)NCNC1=O` [Primidone], which “Raw Signal” value [3] is on record?
Answer: 58828

Question: And the Z-score [4]?
Answer: 0.5448

Question: Which results are given for `O=c1c2ccccc2nc2n1CCc1c-2[nH]c2ccccc12` [Rutaecarpine]?
Answer: Raw Signal [1]: 54118; Z-score [2]: -0.3703

Question: With `CC(=O)Oc1ccccc1C(=O)O` [Acetylsalicylic acid] as the molecule, how does the “Raw Signal” value [6] read?
Answer: 52950

Question: And the Z-score [7]?
Answer: -0.8741

Question: For `COC(=O)[C@H]1[C@H]2C[C@H]3c4[nH]c5ccccc5c4CCN3C[C@H]2CC[C@@H]1O` [Rauwolscine hydrochloride], which “Raw Signal” value [1] is on record?
Answer: 54997

Question: And the Z-score [2]?
Answer: -0.1995

Question: `CN(C)c1ccc(O)c2c1C[C@H]1C[C@H]3[C@H](N(C)C)C(O)=C(C(N)=O)C(=O)[C@@]3(O)C(O)=C1C2=O` [Minocycline hydrochloride] was tested. Which “Raw Signal” value [1] did it give?
Answer: 55658

Question: What about the Z-score [5] of the same molecule?
Answer: 0.2125

Question: `NC(=O)c1ncn([C@@H]2O[C@H](CO)[C@@H](O)[C@H]2O)c1O` [Mizoribine] was tested. Which “Raw Signal” value [6] did it give?
Answer: 51474

Question: What about the Z-score [7] of the same molecule?
Answer: -0.4906

Question: With `CN1CCc2cc(Cl)c(O)cc2[C@@H](c2ccccc2)C1.Cl` [R(+)-SCH-23390 hydrochloride] as the molecule, how does the “Raw Signal” value [1] read?
Answer: 55189

Question: What about the Z-score [5] of the same molecule?
Answer: 0.004461

Question: Which results are given for `CCCCCCCCCCCCCCCCCCOCC(COP(=O)([O-])OCC[N+](C)(C)C)OC` (stereo not shown) [ET-18-OCH3]?
Answer: Raw Signal [6]: 51314; Z-score [7]: -0.7825

Question: `CN(C)CCOC(c1ccccc1)c1ccccc1` [Diphenhydramine hydrochloride] was tested. Which “Raw Signal” value [1] did it give?
Answer: 54459

Question: What about the Z-score [2] of the same molecule?
Answer: -0.1438

Question: With `Cl.c1ccc2nc(C3=NCCN3)ccc2c1` [BU224 hydrochloride] as the molecule, how does the “Raw Signal” value [3] read?
Answer: 61573

Question: What about the Z-score [4] of the same molecule?
Answer: 0.6446

Question: How did the “Raw Signal” value [1] turn out when `Cl.Clc1ccc(Cn2c(CN3CCCC3)nc3ccccc32)cc1` [Clemizole hydrochloride] was run?
Answer: 56495

Question: And the Z-score [2]?
Answer: -0.2498

Question: For `O=c1ccc2ccc(O)c(O)c2o1` [Daphnetin], which “Raw Signal” value [1] is on record?
Answer: 55045

Question: And the Z-score [5]?
Answer: -0.02478

Question: With `CC(C)(Oc1ccc(C2CC2(Cl)Cl)cc1)C(=O)O` (stereo not shown) [Ciprofibrate] as the molecule, how does the “Raw Signal” value [3] read?
Answer: 63809

Question: What about the Z-score [4] of the same molecule?
Answer: 1.038

Question: Which results are given for `OCCN1CCN(CC/C=C2/c3ccccc3Sc3ccc(C(F)(F)F)cc32)CC1` [cis-(Z)-Flupenthixol dihydrochloride]?
Answer: Raw Signal [1]: 56412; Z-score [5]: 0.2528

Question: For `CC(C)(C)c1onc(OCP(=O)(O)O)c1CC(N)C(=O)O` (stereo not shown) [ATPO], which “Raw Signal” value [3] is on record?
Answer: 60120

Question: And the Z-score [4]?
Answer: 0.3887

Question: For `CNCCc1c[nH]c2ccc(O)cc12.O=C(O)C(=O)O`, which “Raw Signal” value [1] is on record?
Answer: 53556

Question: And the Z-score [2]?
Answer: -0.1407

Question: With `O=C(O)[C@H]1CCCN[C@H]1C(=O)O` (racemic) as the molecule, how does the “Raw Signal” value [3] read?
Answer: 60739

Question: What about the Z-score [4] of the same molecule?
Answer: 0.9161

Question: `CCCN(CCC)C(=O)C(CCC(=O)O)NC(=O)c1ccccc1` (stereo not shown) [Proglumide] was tested. Which “Raw Signal” value [1] did it give?
Answer: 53192

Question: And the Z-score [2]?
Answer: -0.2019

Question: How did the “Raw Signal” value [6] turn out when `Oc1ccccc1O` [Pyrocatechol] was run?
Answer: 49319

Question: What about the Z-score [7] of the same molecule?
Answer: -1.514

Question: 5-Bromo-2 -deoxyuridine was tested. Which “Raw Signal” value did it give?
Answer: 57175

Question: And the Z-score?
Answer: -0.13

Question: What does the source list for `NC(=O)c1cc[n+](CC2=C(C(=O)[O-])N3C(=O)[C@@H](NC(=O)C(c4ccccc4)S(=O)(=O)[O-])[C@H]3SC2)cc1.O.[Na+]` (stereo partly shown) [Cefsulodin sodium salt hydrate]?
Answer: Raw Signal [1]: 56779; Z-score [2]: -0.1997

Question: Which results are given for `CN(C)C(=O)N=NC(=O)N(C)C` [N,N,N ,N -Tetramethylazodicarboxamide]?
Answer: Raw Signal [3]: 57249; Z-score [4]: 0.4228

Question: Which results are given for `CCN(CC)C(=O)c1ccc(O)c(OC)c1` [Vanillic acid diethylamide]?
Answer: Raw Signal [1]: 56150; Z-score [5]: 0.1996

Question: With `NC1(C(=O)O)CCc2cc(C(=O)O)ccc21` (stereo not shown) [AIDA] as the molecule, how does the “Raw Signal” value [6] read?
Answer: 52578

Question: What about the Z-score [7] of the same molecule?
Answer: -0.9397

Question: Which results are given for `N[C@@H](Cc1ccc(N(CCCl)CCCl)cc1)C(=O)O` [Melphalan]?
Answer: Raw Signal [3]: 56974; Z-score [4]: 0.4336

Question: `COc1ccc(Cl)cc1C(=O)NCCc1ccc(S(=O)(=O)NC(=O)NC2CCCCC2)cc1` [Glibenclamide] was tested. Which “Raw Signal” value [3] did it give?
Answer: 57524

Question: And the Z-score [4]?
Answer: 0.4787

Question: What does the source list for `C#CCn1c(=O)c2c(ncn2C)n(C)c1=O` [3,7-Dimethyl-I-propargylxanthine]?
Answer: Raw Signal [6]: 50513; Z-score [7]: -0.9452

Question: Which “Raw Signal” value [3] does the source give for `C[N+](C)(C)CCCCCC[N+](C)(C)C.[Cl-].[Cl-]` [Hexamethonium dichloride] here?
Answer: 57643

Question: What about the Z-score [4] of the same molecule?
Answer: 0.5028

Question: What does the source list for `CN1CCCC1c1cccnc1.O=C(O)C(O)C(O)C(=O)O` (single isomer, unassigned; (-)) [(-)-Nicotine hydrogen tartrate salt]?
Answer: Raw Signal: 64466; Z-score: 1.692
